± gives the expanded uncertainty stated by the source.
Assay: mn = molality of the nth substance listed, in mol/kg
Settings: 99.6 kPa, Liquid, Vibrating tube method

CCN1C(=O)N(CC)C2NC(=O)NC21 (stereo not given) + O
mass density [kg/m3]
Settings	278.15 K	288.15 K	298.15 K	308.15 K	318.15 K
m1 = 0.01158	1000.48 ± 0.11	999.594 ± 0.11	997.533 ± 0.11	994.508 ± 0.11	990.681 ± 0.11
m1 = 0.01315	1000.54 ± 0.11	999.667 ± 0.11	997.589 ± 0.11	994.565 ± 0.11	990.747 ± 0.11
m1 = 0.01794	1000.76 ± 0.11	999.871 ± 0.11	997.801 ± 0.11	994.774 ± 0.11	990.935 ± 0.11
m1 = 0.02385	1001.02 ± 0.11	1000.12 ± 0.11	998.052 ± 0.11	995.029 ± 0.11	991.185 ± 0.11
m1 = 0.02832	1001.21 ± 0.11	1000.32 ± 0.11	998.231 ± 0.11	995.196 ± 0.11	991.363 ± 0.11
m1 = 0.03477	1001.5 ± 0.11	1000.6 ± 0.11	998.521 ± 0.11	995.477 ± 0.11	991.629 ± 0.11
m1 = 0.04062	1001.76 ± 0.11	1000.85 ± 0.11	998.752 ± 0.11	995.71 ± 0.11	991.866 ± 0.11
m1 = 0.04476	1001.95 ± 0.11	1001.03 ± 0.11	998.934 ± 0.11	995.885 ± 0.11	992.035 ± 0.11
m1 = 0.04841	1002.11 ± 0.11	1001.18 ± 0.11	999.081 ± 0.11	996.03 ± 0.11	992.176 ± 0.11
m1 = 0.0537	1002.35 ± 0.11	1001.42 ± 0.11	999.318 ± 0.11	996.256 ± 0.11	992.398 ± 0.11
m1 = 0.05905	1002.58 ± 0.11	1001.63 ± 0.11	999.528 ± 0.11	996.468 ± 0.11	992.605 ± 0.11
m1 = 0.06432	1002.81 ± 0.11	1001.87 ± 0.11	999.742 ± 0.11	996.678 ± 0.11	992.818 ± 0.11
m1 = 0.06647	1002.9 ± 0.11	1001.96 ± 0.11	999.836 ± 0.11	996.759 ± 0.11	992.893 ± 0.11
m1 = 0.06907	1003.01 ± 0.11	1002.07 ± 0.11	999.94 ± 0.11	996.876 ± 0.11	993.011 ± 0.11

Reference: the NIST ThermoML archive (doi:10.1016/j.jct.2015.05.028)
